Measured values reported in ChEMBL document CHEMBL6092220 (J Med Chem, 2024).

Legend:
[1] = Plasma protein binding in human assessed as unbound fraction at 10 uM; assay type: ADME, cell-free
[2] = target: T1, Protein cereblon/Signal transducer and activator of transcription 3 (Mus musculus) (UniProt P42227+Q8C7D2); experiment: In-vivo PROTAC activity at STAT3/CRBN in female CB17 SCID mouse assessed as reduction STAT3 level spleen at 10 mg/kg, iv measured at 24 hrs by Western blot analysis; assay type: functional, organism-based; set-up: scale not given: the % may be the effect or the level left
[3] = Half life in ICR mouse at 5 mg/kg, iv; assay type: ADME, organism-based; details: in vivo
[4] = Clearance in ICR mouse assessed as hepatic blood flow at 5 mg/kg, iv; assay type: ADME, organism-based; details: in vivo
[5] = target: T1, Protein cereblon/Signal transducer and activator of transcription 3 (Mus musculus); experiment: In-vivo PROTAC activity at STAT3/CRBN in female CB17 SCID mouse assessed as reduction STAT3 level liver at 10 mg/kg, iv measured at 24 hrs by Western blot analysis; assay type: functional, organism-based; set-up: scale not given: the % may be the effect or the level left
[6] = target: T2, Protein cereblon/Signal transducer and activator of transcription 3 (Homo sapiens, UniProt P40763+Q96SW2); experiment: PROTAC activity at his-SUMO-tagged STAT3 (127 to 688 residues)/CRBN in human HeLa cells assessed as induction of STAT3 degradation incubated for 24 hrs by TECAN SPARK microplate reader analysis; assay type: cell-based
[7] = target: T1, Protein cereblon/Signal transducer and activator of transcription 3 (Mus musculus); experiment: In-vivo PROTAC activity at STAT3/CRBN in female CB17 SCID mouse assessed as reduction STAT3 level liver at 10 mg/kg, iv measured at 72 hrs by Western blot analysis; assay type: functional, organism-based; set-up: scale not given: the % may be the effect or the level left
[8] = Apparent volume of distribution in Beagle dog at 1 mg/kg, iv; assay type: ADME, organism-based, Canis lupus familiaris; details: in vivo, read-out: Vz
[9] = Half life in Sprague-Dawley rat at 5 mg/kg, iv; assay type: ADME, organism-based; details: in vivo
[10] = Cmax in Beagle dog at 1 mg/kg, iv; assay type: ADME, organism-based, Canis lupus familiaris; details: in vivo
[11] = Plasma protein binding in rat at 10 uM; assay type: ADME, cell-free
[12] = Clearance in Beagle dog at 1 mg/kg, iv; assay type: ADME, organism-based, Canis lupus familiaris; details: in vivo
[13] = Clearance in ICR mouse at 5 mg/kg, iv; assay type: ADME, organism-based; details: in vivo
[14] = Clearance in Beagle dog assessed as hepatic blood flow at 1 mg/kg, iv; assay type: ADME, organism-based, Canis lupus familiaris; details: in vivo
[15] = Plasma protein binding in rat assessed as unbound fraction at 10 uM; assay type: ADME, cell-free
[16] = Antiproliferative activity against human MOLM16 cells assessed as cell growth inhibition incubated for 4 days by celltiter-glo assay; assay type: functional, cell-based, MOLM-16; details: MOLM16, 96 h
[17] = AUC (0 to t) in Sprague-Dawley rat at 5 mg/kg, iv; assay type: ADME, organism-based; details: in vivo
[18] = target: T2, Protein cereblon/Signal transducer and activator of transcription 3; experiment: PROTAC activity at his-SUMO-tagged STAT3 (127 to 688 residues)/CRBN in human HeLa cells assessed as induction of STAT3 degradation incubated for 24 hrs by TECAN SPARK microplate reader analysis relative to control; assay type: cell-based
[19] = Plasma protein binding in mouse at 10 uM; assay type: ADME, cell-free
[20] = AUC (0 to t) in Beagle dog at 1 mg/kg, iv; assay type: ADME, organism-based, Canis lupus familiaris; details: in vivo
[21] = Plasma protein binding in dog at 10 uM; assay type: ADME, cell-free, Canis lupus familiaris
[22] = Plasma protein binding in human at 10 uM; assay type: ADME, cell-free
[23] = Half life in Beagle dog at 1 mg/kg, iv; assay type: ADME, organism-based, Canis lupus familiaris; details: in vivo
[24] = Cmax in Sprague-Dawley rat at 5 mg/kg, iv; assay type: ADME, organism-based; details: in vivo
SU-DHL-1 = experiment: Antiproliferative activity against human SU-DHL-1 cells assessed as cell growth inhibition incubated for 4 days by celltiter-glo assay; assay type: functional, cell-based; details: SU-DHL-1, 96 h
[25] = target: T1, Protein cereblon/Signal transducer and activator of transcription 3 (Mus musculus); experiment: In-vivo PROTAC activity at STAT3/CRBN in female CB17 SCID mouse assessed as reduction STAT3 level spleen at 10 mg/kg, iv measured at 48 hrs by Western blot analysis; assay type: functional, organism-based; set-up: scale not given: the % may be the effect or the level left
[26] = Clearance in Sprague-Dawley rat at 5 mg/kg, iv; assay type: ADME, organism-based; details: in vivo
[27] = Antiproliferative activity against human SUPM2 cells assessed as cell growth inhibition incubated for 4 days by celltiter-glo assay; assay type: functional, cell-based; details: SUP-M2, 96 h
[28] = Cmax in ICR mouse at 5 mg/kg, iv; assay type: ADME, organism-based; details: in vivo
[29] = AUC (0 to t) in ICR mouse at 5 mg/kg, iv; assay type: ADME, organism-based; details: in vivo
[30] = Apparent volume of distribution in Sprague-Dawley rat at 5 mg/kg, iv; assay type: ADME, organism-based; details: in vivo, read-out: Vz
[31] = target: T1, Protein cereblon/Signal transducer and activator of transcription 3 (Mus musculus); experiment: In-vivo PROTAC activity at STAT3/CRBN in female CB17 SCID mouse assessed as reduction STAT3 level liver at 10 mg/kg, iv measured at 48 hrs by Western blot analysis; assay type: functional, organism-based; set-up: scale not given: the % may be the effect or the level left
[32] = target: T1, Protein cereblon/Signal transducer and activator of transcription 3 (Mus musculus); experiment: In-vivo PROTAC activity at STAT3/CRBN in female CB17 SCID mouse assessed as reduction STAT3 level spleen at 10 mg/kg, iv measured at 72 hrs by Western blot analysis; assay type: functional, organism-based; set-up: scale not given: the % may be the effect or the level left
[33] = Apparent volume of distribution in ICR mouse at 5 mg/kg, iv; assay type: ADME, organism-based; details: in vivo, read-out: Vz
[34] = Plasma protein binding in dog assessed as unbound fraction at 10 uM; assay type: ADME, cell-free, Canis lupus familiaris
[35] = Clearance in Sprague-Dawley rat assessed as hepatic blood flow at 5 mg/kg, iv; assay type: ADME, organism-based; details: in vivo
[36] = Chemical stability of the compound in PBS buffer assessed as half life at pH 7.4; assay type: physicochemical
[37] = Chemical stability of the compound in PBS buffer assessed as half life at pH 8; assay type: physicochemical
[38] = Chemical stability of the compound in PBS buffer assessed as half life at pH 4; assay type: physicochemical
[39] = target: T3, Signal transducer and activator of transcription 3 (Homo sapiens, UniProt P40763); experiment: Binding affinity to STAT3 (unknown origin) assessed as inhibition constant
[40] = Chemical stability of the compound in PBS buffer at pH 8; assay type: physicochemical
[41] = Chemical stability of the compound in PBS buffer at pH 4; assay type: physicochemical
[42] = Chemical stability of the compound in PBS buffer at pH 7.4; assay type: physicochemical
[43] = target: Signal transducer and activator of transcription 4 (Homo sapiens, UniProt Q14765); experiment: Binding affinity to STAT4 (unknown origin) by FP assay
[44] = target: Signal transducer and activator of transcription 6 (Homo sapiens) (UniProt P42226); experiment: Binding affinity to STAT6 (unknown origin) assessed as maximum inhibition by FP assay relative to control
[45] = target: Protein cereblon/Signal transducer and activator of transcription 4 (Homo sapiens, UniProt Q96SW2+Q14765); experiment: PROTAC activity at STAT4/CRBN in human SU-DHL-1 cells assessed as reduction in STAT4 level incubated for 20 hrs by Western blot analysis; assay type: cell-based; details: dose <= 40.0 µM
[46] = target: Signal transducer and activator of transcription 1-alpha/beta (Homo sapiens) (UniProt P42224); experiment: Binding affinity to STAT1 (unknown origin) assessed as maximum inhibition by FP assay relative to control
[47] = target: T3, Signal transducer and activator of transcription 3; experiment: Binding affinity to STAT3 (unknown origin) assessed as maximum inhibition by FP assay relative to control
[48] = Binding affinity to STAT5 (unknown origin) by FP assay; set-up: species or system Homo sapiens
[49] = target: Signal transducer and activator of transcription 1-alpha/beta (Homo sapiens, UniProt P42224); experiment: Binding affinity to STAT1 (unknown origin) by FP assay
[50] = target: Signal transducer and activator of transcription 4 (Homo sapiens) (UniProt Q14765); experiment: Binding affinity to STAT4 (unknown origin) assessed as maximum inhibition by FP assay relative to control
[51] = target: Signal transducer and activator of transcription 6 (Homo sapiens, UniProt P42226); experiment: Binding affinity to STAT6 (unknown origin) by FP assay

CC(=O)N1CC[C@H]2CC[C@@H](C(=O)N[C@@H](CCC(N)=O)C(=O)N[C@@H](Cc3ccc(F)c(F)c3)C(=O)N3CCC(CCC#Cc4cccc5c4CN(C4CCC(=O)NC4=O)C5=O)CC3)N2C(=O)[C@@H](NC(=O)c2cc3cc(C(F)(F)P(=O)(O)O)ccc3s2)C1 (some centres not stated)
Fu [1]: 0.6%
Activity [2]: > 90%
half-life [3]: 16.9 h
QH [4]: 0.1%
Activity [5]: > 90%
DC50 [6]: 1.6 µM
Activity [7]: > 90%
Vd [8]: 0.24 L/kg
half-life [9]: 1.3 h
Cmax [10]: 8.03 µg/mL
PPB [11]: 96.2%
clearance [12]: 0.06 L/h/kg
clearance [13]: 0.00438 L/h/kg
QH [14]: 3.1%
Fu [15]: 3.8%
IC50 [16]: 0.075 µM
AUC(0-t) [17]: 21.1 µg·h/mL
Emax [18]: 68%
PPB [19]: 99.1%
AUC(0-t) [20]: 15 µg·h/mL
PPB [21]: 96.7%
PPB [22]: 99.4%
half-life [23]: 2.9 h
Cmax [24]: 15.9 µg/mL
IC50 (SU-DHL-1): 3.58 µM
Activity [25]: > 90%
clearance [26]: 0.24 L/h/kg
IC50 [27]: 1.46 µM
Cmax [28]: 121 µg/mL
AUC(0-t) [29]: 739 µg·h/mL
Vd [30]: 0.44 L/kg
Activity [31]: > 90%
Activity [32]: > 90%
Vd [33]: 0.11 L/kg
Fu [34]: 3.3%
QH [35]: 7.3%

CN1CC[C@H]2CC[C@@H](C(=O)N[C@@H](CCC(N)=O)C(=O)NC(c3ccccc3)c3ccccc3)N2C(=O)[C@@H](NC(=O)c2cc3cc(C(F)(F)P(=O)(O)O)ccc3[nH]2)C1
t1/2 [36]: 2 h
t1/2 [37]: 2 h
t1/2 [38]: 4 h

CN1CC[C@H]2CC[C@@H](C(=O)N[C@@H](CCC(N)=O)C(=O)NC(c3ccccc3)c3ccccc3)N2C(=O)[C@@H](NC(=O)c2cc3cc(C(F)(F)P(=O)(O)O)ccc3s2)C1
Ki [39]: 0.006 µM
Stability [40]: Stable
Stability [41]: Stable
Stability [42]: Stable

NC(=O)CC[C@H](NC(=O)[C@@H]1CC[C@@H]2CCN(C(=O)CCCCCC#Cc3cccc4c3CN(C3CCC(=O)NC3=O)C4=O)C[C@H](NC(=O)c3cc4cc(C(F)(F)P(=O)(O)O)ccc4[nH]3)C(=O)N21)C(=O)NC(c1ccccc1)c1ccccc1 (some centres not stated)
IC50 [43]: 1.1 µM
Imax [44]: 0%
Activity [45]: Dose-dependent-effect
DC50 [6]: 0.4 µM
IC50 [16]: 0.03 µM
Emax [18]: 86%
Imax [46]: 92%
Imax [47]: 100%
IC50 (SU-DHL-1): 0.33 µM
IC50 [27]: 0.49 µM
IC50 [48]: > 0.01 µM
IC50 [49]: 1.3 µM
Imax [50]: 93%
IC50 [51]: > 10 µM
